In patent publication US9723840B2 (SYNGENTA PARTICIPATIONS AG, priority 2013, dated 2017):

How the values were obtained:
Assay type in all cases: in vivo
Alopecurus myosuroides [1] = assay: Post-emergence herbicidal activity, ALOMY; design: key: 5=total damage to plant; 0=no damage to plant; conditions: 1000 g/Ha, post-emergence spray (8 days cultivation), evaluated after 13 days, scale 0-5
Procedure: (§1) Seeds of a variety of test species were sown in standard soil in pots. After 8 days cultivation (post-emergence) under controlled conditions in a glasshouse (at 24/16° C., day/night; 14 hours light; 65% humidity), the plants were sprayed with an aqueous spray solution derived from the formulation of the technical active ingredient in acetone/water (50:50) solution containing 0.5% Tween 20 (polyoxyethelyene sorbitan monolaurate, CAS RN 9005-64-5). The test plants were then grown in a glasshouse under controlled conditions (at 24/16° C., day/night; 14 hours light; 65% humidity) and watered twice daily. After 13 days, the test was evaluated (5=total damage to plant; 0=no damage to plant).

Alopecurus myosuroides [2] = assay: Pre-emergence herbicidal activity, ALOMY; conditions: 1000 g/Ha, pre-emergence spray, evaluated after 13 days, scale 0-5
Procedure: as §1, with “After” for “After 8 days”, “for one day (pre-emergence)” for “(post-emergence)”

Echinochloa crus-galli [3] = assay: Pre-emergence herbicidal activity, ECHCG; design: key: 5=total damage to plant; 0=no damage to plant; conditions: 1000 g/Ha, pre-emergence spray, evaluated after 13 days, scale 0-5
Procedure: as §1, with “After” for “After 8 days”, “for one day (pre-emergence)” for “(post-emergence)”

Abutilon theophrasti [4] = assay: Pre-emergence herbicidal activity, ABUTH; design: key: 5=total damage to plant; 0=no damage to plant; conditions: 1000 g/Ha, pre-emergence spray, evaluated after 13 days, scale 0-5
Procedure: as §1, with “After” for “After 8 days”, “for one day (pre-emergence)” for “(post-emergence)”

Abutilon theophrasti [5] = assay: Post-emergence herbicidal activity, ABUTH; design: key: 5=total damage to plant; 0=no damage to plant; conditions: 1000 g/Ha, post-emergence spray (8 days cultivation), evaluated after 13 days, scale 0-5
Procedure: as §1

Amaranthus retroflexus [6] = assay: Post-emergence herbicidal activity, AMARE; design: key: 5=total damage to plant; 0=no damage to plant; conditions: 1000 g/Ha, post-emergence spray (8 days cultivation), evaluated after 13 days, scale 0-5
Procedure: as §1

Setaria faberi [7] = assay: Pre-emergence herbicidal activity, SETFA; design: key: 5=total damage to plant; 0=no damage to plant; conditions: 1000 g/Ha, pre-emergence spray, evaluated after 13 days, scale 0-5
Procedure: as §1, with “After” for “After 8 days”, “for one day (pre-emergence)” for “(post-emergence)”

Zea mays [8] = assay: Post-emergence herbicidal activity, ZEAMX; design: key: 5=total damage to plant; 0=no damage to plant; conditions: 1000 g/Ha, post-emergence spray (8 days cultivation), evaluated after 13 days, scale 0-5
Procedure: as §1

Echinochloa crus-galli [9] = assay: Post-emergence herbicidal activity, ECHCG; design: key: 5=total damage to plant; 0=no damage to plant; conditions: 1000 g/Ha, post-emergence spray (8 days cultivation), evaluated after 13 days, scale 0-5
Procedure: as §1

Setaria faberi [10] = assay: Post-emergence herbicidal activity, SETFA; design: key: 5=total damage to plant; 0=no damage to plant; conditions: 1000 g/Ha, post-emergence spray (8 days cultivation), evaluated after 13 days, scale 0-5
Procedure: as §1

Amaranthus retroflexus [11] = assay: Pre-emergence herbicidal activity, AMARE; design: key: 5=total damage to plant; 0=no damage to plant; conditions: 1000 g/Ha, pre-emergence spray, evaluated after 13 days, scale 0-5
Procedure: as §1, with “After” for “After 8 days”, “for one day (pre-emergence)” for “(post-emergence)”

Zea mays [12] = assay: Pre-emergence herbicidal activity, ZEAMX; conditions: 1000 g/Ha, pre-emergence spray, evaluated after 13 days, scale 0-5
Procedure: as §1, with “After” for “After 8 days”, “for one day (pre-emergence)” for “(post-emergence)”

Row | Structure (SMILES) | ALOMY damage score, application post-emergence (Alopecurus myosuroides [1]) | ALOMY damage score, application pre-emergence (Alopecurus myosuroides [2]) | ECHCG damage score, application pre-emergence (Echinochloa crus-galli [3]) | ABUTH damage score, application pre-emergence (Abutilon theophrasti [4]) | ABUTH damage score, application post-emergence (Abutilon theophrasti [5]) | AMARE damage score, application post-emergence (Amaranthus retroflexus [6]) | SETFA damage score, application pre-emergence (Setaria faberi [7]) | ZEAMX damage score, application post-emergence (Zea mays [8]) | ECHCG damage score, application post-emergence (Echinochloa crus-galli [9]) | SETFA damage score, application post-emergence (Setaria faberi [10]) | AMARE damage score, application pre-emergence (Amaranthus retroflexus [11]) | ZEAMX damage score, application pre-emergence (Zea mays [12])
1 | CN1CC(O)N(c2cc(C(C)(C)F)c(Cl)nn2)C1=O (centres unmarked) [Example A1] | 5 | 4 | 5 | 5 | 5 | 5 | 5 | 5 | 5 | 5 | 5 | 4
2 | CC1C(O)N(c2cc(C(C)(C)F)c(Cl)nn2)C(=O)N1C (centres unmarked) [Example A2, 1-[6-chloro-5-(1-fluoro-1-methyl-ethyl)pyridazin-3-yl]-5-hydroxy-3,4-dimethyl-imidazolidin-2-one] | 4 | 4 | 4 | 5 | 5 | 5 | 5 | 5 | 5 | 5 | 5 | 3
3 | CC1C(O)N(c2cc(C(C)(C)F)c(-c3ccccc3)nn2)C(=O)N1C (centres unmarked) [Example A3] | 4 | 4 | 4 | 5 | 5 | 5 | 5 | 4 | 5 | 5 | 5 | 3
4 | CN1CC(O)N(c2cc(C(C)(C)F)c(-c3ccccc3)nn2)C1=O (centres unmarked) [Example A4] | 5 | 4 | 5 | – | 5 | 5 | 5 | 5 | 5 | 5 | 5 | –
5 | CN1CC(O)N(c2cc(C(F)(F)F)c(Cl)nn2)C1=O (centres unmarked) [Example A5, 3-[6-chloro-5-(trifluoromethyl)pyridazin-3-yl]-4-hydroxy-1-methyl-imidazolidin-2-one] | 4 | 4 | 4 | 5 | 5 | 5 | 5 | 4 | 5 | 5 | 5 | 2
6 | CON1C(=O)N(c2cc(C(C)(C)F)c(Cl)nn2)C(O)C1C (centres unmarked) [Example A6, 1-[6-chloro-5-(1-fluoro-1-methyl-ethyl)pyridazin-3-yl]-5-hydroxy-3-methoxy-4-methyl-imidazolidin-2-one] | 4 | 3 | 4 | 5 | 5 | 5 | 4 | 5 | 5 | 5 | 5 | 3
7 | CC1C(O)N(c2cc(C(F)(F)F)c(Cl)nn2)C(=O)N1C (centres unmarked) [Example A16] | – | – | 5 | 5 | 5 | 5 | 3 | 3 | 5 | 5 | 5 | 3
8 | CN1CC(O)N(c2cc(C(C)(C)F)cnn2)C1=O (centres unmarked) [Example A18] | – | – | 5 | 5 | 5 | 5 | 4 | 4 | 5 | 5 | 5 | 2
9 | CN1CC(O)N(c2cc(C(C)(F)F)cnn2)C1=O (centres unmarked) [Example A20] | – | – | 5 | 5 | 5 | 5 | 5 | 5 | 5 | 5 | 5 | 3
10 | CC1C(O)N(c2cc(C(F)(F)F)cnn2)C(=O)N1C (centres unmarked) [Example A21] | – | – | 5 | 5 | 5 | 5 | 5 | 5 | 5 | 5 | 5 | 3
11 | CN1C(=O)N(c2cc(C(F)(F)F)c(Cl)nn2)C(O)C1O (centres unmarked) [Example A22] | – | – | 2 | 5 | 5 | 5 | 4 | 3 | 5 | 5 | 5 | 1
12 | CCOC1C(O)N(c2cc(C(F)(F)F)c(Cl)nn2)C(=O)N1C (centres unmarked) [Example A23] | – | – | 5 | 5 | 5 | 5 | 5 | 3 | 5 | 5 | 5 | 2
13 | CCOC1C(O)N(c2cc(C(F)(F)F)cnn2)C(=O)N1C (centres unmarked) [Example A24] | – | – | 4 | 5 | – | – | 5 | – | 5 | – | 5 | 2
14 | CN1CC(O)N(c2ccc(C(=O)NC(C)(C)C)nn2)C1=O (centres unmarked) [Example A25] | – | – | 5 | 5 | 5 | 5 | 5 | 3 | 5 | 5 | 5 | 2
